According to patent US20260263628A1, “AN ORAL LIQUID COMPOSITION OF VINORELBINE” (INSTITUT GUSTAVE ROUSSY, priority 2022, published 2026):
Where a name gives a salt, the structure may show the parent alone. Read-outs that look alike come from different tables or passages of the source.

How the values were obtained:
[1] = Isothermal titration calorimetry of CD/vinorelbine systems (titration and competition with SGM); type: physicochemical; conditions: 25° C.; for Binding constant / ΔbH° (inclusion enthalpy): vinorelbine-CD, phosphate buffer pH 7.0
Method: In the first instance, 12 CDs and CD derivatives supplied by Captisol® (Kansas, USA), SIGMA® (St Louis, Missouri, USA) and MSD® (New Jersey, USA) and authorized by the FDA or the European Medicines Agency (EMA) were tested (U.S Food and Drug Administration C for DE and. Food Additive Status List. FDA 2022. U.S Food and Drug Administration C for DE and. Select Committee on GRAS Substances 2022. Committee for Human Medicinal Products. Cyclodextrins used as excipients. EMA 2017:16). These were alpha-CD, beta-[…] (methyl-beta-CD, low substitution degree), RAMEB (methyl-beta-CD, higher substitution degree), DIMEB (di-O-methyl-beta-[…] (tri-O-methyl-beta-CD), HP-beta-CD (Hydroxypropyl-beta-CD), SBE-beta-CD (Sulfobutylether-beta-CD), gamma-CD, HP-gamma-CD (Hydroxypropyl-gamma-CD), SBE-gamma-CD (Sulfobutylether-gamma-CD), and sugammadex (SGM). Vinorelbine ditartrate and 50 mM CD solutions were prepared in phosphate buffer pH 7.0. […] To confirm the validity of the chosen stoichiometric model and to increase the accuracy of the thermodynamic parameters, each system was also subjected to a competition experiment with SGM: a solution of 0.5 mM vinorelbine and 10 mM CD titrated against a mixture containing 5 mM SGM and 10 mM CD. […] For all CDs the measurements were performed at 25° C., and the stirring speed was set at 1000 rpm. The resulting heat flux was recorded as a function of time. Prior to data analysis, blank titrations were performed under the same experimental conditions by injecting individual species into buffer, and/or buffer into species and buffer into buffer to determine the heat of dilution. […] The peak area after each injection was obtained by integration of the resulting signal and was expressed as the heat effect per injection. The binding constant (KB), inclusion enthalpy (ΔbH°), and heat capacity (ΔbCp®) were determined using a program developed by Bertaut and Landy involving a global analysis of all binding isotherms obtained for a given system (Bertaut et al. Beilstein J Org Chem 2014:12). A set of thermodynamic parameters was employed for simultaneous nonlinear regression analyses of titration and competition experiments.

[2] = Simulated complexation of vinorelbine in CD using the constants of Table 2; conditions: for CD concentration needed to obtain 95% of complexation: vinorelbine solution at 20 mg/mL (25.7 mmol/L)
Method: To obtain 95% of complexation for a solution at 20 mg/mL (ie 25.7 mmol/L), about 62 mmol/L of SGM or about 71 mmol/L of SBE-beta-CD is needed.
Using the constant values of Table 2, we simulated the complexation of vinorelbine in CD depending on the CD concentration and the final concentration of the vinorelbine solution. To achieve a concentration of 10 mg/mL, approximately 49 mmol/L sugammadex or 58 mmol/L SBE-beta-CD is required to reach 95% of complexation. For 18 mg/mL, approximately 59 mmol/L sugammadex or 68 mmol/L SBE-beta-CD is required to obtain the same complexation rate. […] This indicates a real and strong complexation between vinorelbine and cyclodextrin.

[3] = Haze / precipitate on mixing CD with vinorelbine (2D NMR sample preparation); type: physicochemical
Method: In order to confirm the type of existing interaction (inclusion complex, type of binding) between CD and vinorelbine, a two-dimensional proton NMR was performed on PA (Spitzer et al, J Heterocycl Chem 1995; 32:1255-9), CDs (Schneider et al, Chem Rev 1998; 98:1755-86) and complexes (Vogt et al, Mol Pharm 2012; 9:3357-74; Péan et al, J Chim Phys Phys-Chim Biol 1999; 96:1486-93). Vinorelbine 10 mM stock solution (SS) was prepared by dissolving 21.58 mg of vinorelbine tartrate in 2 mL of deuterated water. CD stock solutions were prepared by dissolving: 21.78 mg SGM in 1 mL heavy water (SS2), 9.73 mg alpha-CD in ImL heavy water (SS3), 21.63 mg SBE-beta-CD in 1 mL heavy water (SS4), and 20.72 mg SBE-gamma-CD in 1 mL heavy water (SS5). These stock solutions were used for the preparation of 10 samples containing vinorelbine, CDs or a mixture of CDs and vinorelbine in deuterated water as shown in Table 1.
A range of vinorelbine-SGM mixtures was performed from 1.5 mmol/L to 5 mmol/L. The haze appears from the mixture of concentration 2.5 mmol/L (sample 10).

EpiOral = type: cell-based; conditions: vinorelbine 20 mg/mL
Method: EpiOral were also used for immunohistology analysis as follow: 3 untreated tissues (negative control, NC), 3 tissues in contact with SBE-β-CD, 3 tissues in contact with vinorelbine at 20 mg/mL concentration, 3 tissues in contact with vinorelbine complexed with SBE-β-CD and 3 tissues in contact with 1% Triton X-100 (positive control, PC). Tissues samples were fixed with 4% PFA and embedded in paraffin. Sections (3 μm thick) were deparaffinized and were stained with Hematoxylin and Eosin (H&E). For immunofluorescence, slides were incubated overnight at 4° C. with primary antibodies diluted in 0.02% Triton X-100-PBS. Primary antibodies were as follows: rabbit anti-Ki67 (ab16667; 1/75; Abcam), mouse anti-E-Cadherin (ab1416; 1/100; Abcam), rabbit anti-Claudin 4 (ab210796; 1/200; Abcam), mouse anti-Cytokeratin 10 (ab9026; 1/100; Abcam), rabbit anti-Cytokeratin 13 (ab97327; 1/50; Abcam) and mouse anti-Cytokeratin 14 (ab7800; 1/50; Abcam). For immunofluorescence detection, secondary antibody Alexa Fluor™ plus 488 goat anti-mouse (1:200; Invitrogen A11029), Alexa Fluor™ plus 488 donkey anti-rabbit (1:200; Invitrogen A21206), Alexa Fluor™ plus 594 goat anti-mouse (1:200; Invitrogen A32742) and Alexa Fluor™ plus 594 goat anti-rabbit (1:200; Invitrogen A32740) were used. […]

[4] = cited from earlier work

| Compound | Heat variation / interaction with vinorelbine in titration experiments [1] | Binding constant [1] | ΔbH° (inclusion enthalpy) [1] | CD concentration required to reach 95% of complexation ([2]; vinorelbine 10 mg/mL) | CD concentration required to reach 95% of complexation ([2]; vinorelbine 18 mg/mL) | CD concentration needed to obtain 95% of complexation [2] | Haze / precipitate when mixed with vinorelbine [3] | Concentration of vinorelbine-CD mixture from which haze appears ([3]; range 1.5 to 5 mmol/L, deuterated water) | Cytotoxicity / TUNEL marking (EpiOral) | E-cadherin marking (tight junctions) (EpiOral; Triton X-100 1%) | Solubility ([4]; aprotic solvents) | Solubility ([4]; methanol) | Solubility ([4]; water) |
| --- | --- | --- | --- | --- | --- | --- | --- | --- | --- | --- | --- | --- | --- |
| OC[C@H]1O[C@@H]2O[C@H]3[C@H](O)[C@@H](O)[C@@H](O[C@H]4[C@H](O)[C@@H](O)[C@@H](O[C@H]5[C@H](O)[C@@H](O)[C@@H](O[C@H]6[C@H](O)[C@@H](O)[C@@H](O[C@H]7[C@H](O)[C@@H](O)[C@@H](O[C@H]1[C@H](O)[C@H]2O)O[C@@H]7CO)O[C@@H]6CO)O[C@@H]5CO)O[C@@H]4CO)O[C@@H]3CO [Alpha-CD, alpha-cyclodextrin] | small heat variation | 106 L/mol | -1.185 kcal/mol |  |  |  |  |  |  |  |  |  |  |
| CCC1=C[C@@H]2CN(C1)Cc1c([nH]c3ccccc13)[C@@](C(=O)OC)(c1cc3c(cc1OC)N(C)[C@H]1[C@@](O)(C(=O)OC)[C@H](OC(C)=O)[C@]4(CC)C=CCN5CC[C@]31[C@@H]54)C2 [vinorelbine, vinorelbine ditartrate salt hydrate] |  |  |  |  |  |  |  |  | causes cell mortality and destroys tight tissue junctions | loss of E-cadherin marking | insoluble | partially soluble | totally soluble |
| sulfobutylether-beta-cyclodextrin [SBE-beta-CD] | an interaction is observed | 412 L/mol | +2305 cal/mol | ~58 mmol/L | ~68 mmol/L | about 71 mmol/L | does not produce any precipitate |  |  |  |  |  |  |

Further lines, with some results ahead:

| Heat variation / interaction with vinorelbine in titration experiments [1] | Binding constant [1] | ΔbH° (inclusion enthalpy) [1] | CD concentration required to reach 95% of complexation ([2]; vinorelbine 10 mg/mL) | CD concentration required to reach 95% of complexation ([2]; vinorelbine 18 mg/mL) | CD concentration needed to obtain 95% of complexation [2] | Haze / precipitate when mixed with vinorelbine [3] | Concentration of vinorelbine-CD mixture from which haze appears ([3]; range 1.5 to 5 mmol/L, deuterated water) | Compound | Cytotoxicity / TUNEL marking (EpiOral) | E-cadherin marking (tight junctions) (EpiOral; Triton X-100 1%) | Solubility ([4]; aprotic solvents) | Solubility ([4]; methanol) | Solubility ([4]; water) |
| --- | --- | --- | --- | --- | --- | --- | --- | --- | --- | --- | --- | --- | --- |
| an interaction is observed | 511 L/mol | -3.177 kcal/mol | approximately 49 mmol/L | approximately 59 mmol/L | about 62 mmol/L | a haze appeared | ≥ 2500 µM | O=C(O)CCSC[C@H]1O[C@@H]2O[C@H]3[C@H](O)[C@@H](O)[C@@H](O[C@H]4[C@H](O)[C@@H](O)[C@@H](O[C@H]5[C@H](O)[C@@H](O)[C@@H](O[C@H]6[C@H](O)[C@@H](O)[C@@H](O[C@H]7[C@H](O)[C@@H](O)[C@@H](O[C@H]8[C@H](O)[C@@H](O)[C@@H](O[C@H]9[C@H](O)[C@@H](O)[C@@H](O[C@H]1[C@H](O)[C@H]2O)O[C@@H]9CSCCC(=O)O)O[C@@H]8CSCCC(=O)O)O[C@@H]7CSCCC(=O)O)O[C@@H]6CSCCC(=O)O)O[C@@H]5CSCCC(=O)O)O[C@@H]4CSCCC(=O)O)O[C@@H]3CSCCC(=O)O [SGM, sugammadex] |  |  |  |  |  |
| an interaction is observed | 121 L/mol | +514 cal/mol |  |  |  |  |  | Sulfobutylether-gamma-CD [SBE-gamma-CD] |  |  |  |  |  |
